Measurements published in paper PMC10272271, “MAM-2201 acute administration impairs motor, sensorimotor, prepulse inhibition, and memory functions in mice: a comparison with its analogue AM-2201” (Psychopharmacology, 2023).

Experiments:
CD-1 male mice [1] = test system: CD-1 male mice; set-up: method as in Bilel et al. ([2020]); settings: i.p., value ± SEM, elaborated from earlier data, ref Bilel et al. ([2020]); cited from earlier work
CD-1 male mice [2] = assay: Overall tactile response (vibrissae, corneal, pinnae reflexes); type: in vivo, mouse
Experimental: For the overall study 234 mice were used. In sensorimotor (visual object, visual placing, acoustic, and overall tactile responses) tests for MAM-2201, experiments for each treatment dose (vehicle or 5 different MAM-2201 doses, 0.01, 0.1, 1, 3, and 6 mg/kg) used 8 mice (total mice used: 48) and for MAM-2201 with AM-251 pretreatment, experiments for each dose regimen (vehicle + AM-251 or MAM-2201 + AM-251, 6 mg/kg) used 16 mice. In the analysis of spontaneous locomotion (open field test) for MAM-2201, experiments for each treatment regimen (vehicle or 4 different MAM-2201 doses, 0.01, 0.1, 1, and 6 mg/kg) used 10 mice (total mice used: 50). In the PPI test for MAM-2201, experiments for each treatment (vehicle or 3 different MAM-2201 doses, 0.01, 0.1, and 1 mg/kg) used 10 mice (total mice used: 40), while for MAM-2201 experiments in the Novel Object Recognition (NOR) test for each treatment regimen (vehicle or 3 different MAM-2201 and vehicle or 3 different AM-2201 doses, 0.01, 0.1, and 1 mg/kg) used 10 mice (total mice used: 80). In the present study the effect of MAM-2201 on sensorimotor responses was investigated using a battery of behavioral tests widely used in studies of “safety-pharmacology,” that we routinely adopted in our laboratory, for the preclinical characterization of new molecules in rodents (Ossato et al. [2015]; Vigolo et al. [2015]; Bilel et al. [2020]). The voluntary and involuntary motor responses of the animal to different visual, acoustic, and tactile stimuli were evaluated according to the procedure described in our previous studies (Ossato et al. [2015]; Bilel et al. [2020]). To reduce the number of animals used, mice were evaluated in functional observational tests carried out in a consecutive manner according to the following time scheme: observation of visual object responses (frontal and lateral view), acoustic response, tactile response (vibrissae, corneal and pinnae reflexes), and visual placing response. Sensorimotor tests were measured at 10, 30, 60, 120, 180, 240, and 300 min after injections for the evaluation of the visual object, acoustic and the tactile response, and at 15, 45, 75, 135, 195, 255, and 315 min after injections for the evaluation of visual placing response. Behavioral tests were conducted in a thermostated (temperature: 20–22 °C, humidity: 45–55%) and light (150 lx) controlled room with a background noise of 40 ± 4 dB. […] The behavior of mice was videotaped by a camera (B/W USB Camera day & night with varifocal lens; Ugo Basile, Italy) placed at the top or on one side of the box and analyzed off-line by a different trained operator. […] Sensory gating was evaluated by analysis of the pre-pulse inhibition (PPI) of the acoustic startle reflex as previously described (Bilel et al. [2020]). […]

CD-1 male mice [3] = assay: Visual placing response test; type: in vivo, mouse
Experimental: (§1) For the overall study 234 mice were used. In sensorimotor (visual object, visual placing, acoustic, and overall tactile responses) tests for MAM-2201, experiments for each treatment dose (vehicle or 5 different MAM-2201 doses, 0.01, 0.1, 1, 3, and 6 mg/kg) used 8 mice (total mice used: 48) and for MAM-2201 with AM-251 pretreatment, experiments for each dose regimen (vehicle + AM-251 or MAM-2201 + AM-251, 6 mg/kg) used 16 mice. In the analysis of spontaneous locomotion (open field test) for MAM-2201, experiments for each treatment regimen (vehicle or 4 different MAM-2201 doses, 0.01, 0.1, 1, and 6 mg/kg) used 10 mice (total mice used: 50). In the PPI test for MAM-2201, experiments for each treatment (vehicle or 3 different MAM-2201 doses, 0.01, 0.1, and 1 mg/kg) used 10 mice (total mice used: 40), while for MAM-2201 experiments in the Novel Object Recognition (NOR) test for each treatment regimen (vehicle or 3 different MAM-2201 and vehicle or 3 different AM-2201 doses, 0.01, 0.1, and 1 mg/kg) used 10 mice (total mice used: 80). […] The voluntary and involuntary motor responses of the animal to different visual, acoustic, and tactile stimuli were evaluated according to the procedure described in our previous studies (Ossato et al. [2015]; Bilel et al. [2020]). To reduce the number of animals used, mice were evaluated in functional observational tests carried out in a consecutive manner according to the following time scheme: observation of visual object responses (frontal and lateral view), acoustic response, tactile response (vibrissae, corneal and pinnae reflexes), and visual placing response. Sensorimotor tests were measured at 10, 30, 60, 120, 180, 240, and 300 min after injections for the evaluation of the visual object, acoustic and the tactile response, and at 15, 45, 75, 135, 195, 255, and 315 min after injections for the evaluation of visual placing response. […] Sensory gating was evaluated by analysis of the pre-pulse inhibition (PPI) of the acoustic startle reflex as previously described (Bilel et al. [2020]). […]

CD-1 male mice [4] = assay: Acoustic response test; type: in vivo, mouse; settings: for acoustic response reduced to about: immediately after administration
Experimental: For the overall study 234 mice were used. In sensorimotor (visual object, visual placing, acoustic, and overall tactile responses) tests for MAM-2201, experiments for each treatment dose (vehicle or 5 different MAM-2201 doses, 0.01, 0.1, 1, 3, and 6 mg/kg) used 8 mice (total mice used: 48) and for MAM-2201 with AM-251 pretreatment, experiments for each dose regimen (vehicle + AM-251 or MAM-2201 + AM-251, 6 mg/kg) used 16 mice. In the analysis of spontaneous locomotion (open field test) for MAM-2201, experiments for each treatment regimen (vehicle or 4 different MAM-2201 doses, 0.01, 0.1, 1, and 6 mg/kg) used 10 mice (total mice used: 50). In the PPI test for MAM-2201, experiments for each treatment (vehicle or 3 different MAM-2201 doses, 0.01, 0.1, and 1 mg/kg) used 10 mice (total mice used: 40), while for MAM-2201 experiments in the Novel Object Recognition (NOR) test for each treatment regimen (vehicle or 3 different MAM-2201 and vehicle or 3 different AM-2201 doses, 0.01, 0.1, and 1 mg/kg) used 10 mice (total mice used: 80). In the present study the effect of MAM-2201 on sensorimotor responses was investigated using a battery of behavioral tests widely used in studies of “safety-pharmacology,” that we routinely adopted in our laboratory, for the preclinical characterization of new molecules in rodents (Ossato et al. [2015]; Vigolo et al. [2015]; Bilel et al. [2020]). The voluntary and involuntary motor responses of the animal to different visual, acoustic, and tactile stimuli were evaluated according to the procedure described in our previous studies (Ossato et al. [2015]; Bilel et al. [2020]). To reduce the number of animals used, mice were evaluated in functional observational tests carried out in a consecutive manner according to the following time scheme: observation of visual object responses (frontal and lateral view), acoustic response, tactile response (vibrissae, corneal and pinnae reflexes), and visual placing response. Sensorimotor tests were measured at 10, 30, 60, 120, 180, 240, and 300 min after injections for the evaluation of the visual object, acoustic and the tactile response, and at 15, 45, 75, 135, 195, 255, and 315 min after injections for the evaluation of visual placing response. Behavioral tests were conducted in a thermostated (temperature: 20–22 °C, humidity: 45–55%) and light (150 lx) controlled room with a background noise of 40 ± 4 dB. The apparatus for the visual object, acoustic and tactile sensorimotor tests consisted of an experimental chamber (350 × 350 × 350 mm) with black methacrylate walls and a transparent front door. During the week before the experiment, each mouse was placed in the box and handled (once a day) on every other day, i.e., 3 times, to get used to both the environment and the experimenter. To avoid olfactory cues, cages were carefully cleaned with a dilute (5%) ethanol solution and rinsed with water. All experiments were performed between 8:30 AM and 2:00 PM and conducted by trained observers working in pairs who were blinded to the treatment being tested (Ossato et al. [2015]). The behavior of mice was videotaped by a camera (B/W USB Camera day & night with varifocal lens; Ugo Basile, Italy) placed at the top or on one side of the box and analyzed off-line by a different trained operator. […] Sensory gating was evaluated by analysis of the pre-pulse inhibition (PPI) of the acoustic startle reflex as previously described (Bilel et al. [2020]). […]

CD-1 male mice [5] = assay: Acoustic startle and pre-pulse inhibition (PPI) test; type: in vivo, mouse
CD-1 male mice [6] = assay: Spontaneous locomotor activity (open field, ANY-maze); type: in vivo, mouse
Experimental: as §1, with “50).” for “50). In the PPI test for MAM-2201, experiments for each treatment (vehicle or 3 different MAM-2201 doses, 0.01, 0.1, and 1 mg/kg) used 10 mice (total mice used: 40), while for MAM-2201 experiments in the Novel Object Recognition (NOR) test for each treatment regimen (vehicle or 3 different MAM-2201 and vehicle or 3 different AM-2201 doses, 0.01, 0.1, and 1 mg/kg) used 10 mice (total mice used: 80).”, “response.” for “response. Sensorimotor tests were measured at 10, 30, 60, 120, 180, 240, and 300 min after injections for the evaluation of the visual object, acoustic and the tactile response, and at 15, 45, 75, 135, 195, 255, and 315 min after injections for the evaluation of visual placing response.”

[7] = Mus musculus, ip, mice, value ± SEM

Structure (SMILES): O=C(c1cccc2ccccc12)c1cn(CCCCCF)c2ccccc12 [AM-2201, 1-[(5-Fluoropentyl)-1H-indol-3-yl](1-naphthylenyl) methanone]
- ED50 (mg/kg), Visual placing (CD-1 male mice [1]): 0.500 ± 0.030 mg/kg

Structure (SMILES): Cc1ccc(C(=O)c2cn(CCCCCF)c3ccccc23)c2ccccc12 [MAM-2201, 1-[(5-fluoropentyl)-1H-indol-3-yl](4-methyl-1-naphthalenyl) methanone]
- effect on overall tactile response (CD-1 male mice [2]; 1 mg/kg i.p., first hour after administration): slightly reduced
- effect on overall tactile response (CD-1 male mice [2]; 3 and 6 mg/kg i.p.): deeper and more persistent effect
- ED50 (CD-1 male mice [2]; [7]): 1.861 ± 0.011 mg/kg
- effect on visual placing response (CD-1 male mice [3]; 0.01-6 mg/kg i.p., persisted up to 5 h at all doses): drastic impairment
- ED50 (CD-1 male mice [3]; [7]): 0.291 ± 0.025 mg/kg
- acoustic response reduced to about (CD-1 male mice [4]; 1 mg/kg i.p.): about 20%
- acoustic response reduced to about (CD-1 male mice [4]; 3 mg/kg i.p.): ~80%
- acoustic response reduced to about (CD-1 male mice [4]; 6 mg/kg i.p.): ~100%
- ED50 (CD-1 male mice [4]; Mus musculus, ip, mice, i.p., value ± SEM, acoustic response test, read-out: ED50 (mg/kg), Startle reflex): 1.25 ± 0.013 mg/kg
- effect on startle amplitude (CD-1 male mice [5]; only at 1 mg/kg i.p., at 15 and 120 min): reduced
- effect on PPI (prepulse startle intensity) (CD-1 male mice [5]; prepulse 68 dB, 15 min, 0.1 and 1 mg/kg i.p.): significant decrease
- decrease of PPI (CD-1 male mice [5]; prepulse 68 dB, 120 min, 0.1 mg/kg i.p.): ~ 19%
- decrease of PPI (CD-1 male mice [5]; prepulse 68 dB, 120 min, 1 mg/kg i.p.): ~40%
- decrease of PPI (CD-1 male mice [5]; prepulse 75 dB, 15 min, 0.1 mg/kg i.p.): ~ 28%
- decrease of PPI (CD-1 male mice [5]; prepulse 75 dB, 15 min, 1 mg/kg i.p.): ~ 41%
- decrease of PPI (CD-1 male mice [5]; prepulse 75 dB, 120 min, 1 mg/kg i.p.): ~ 34%
- decrease of PPI (CD-1 male mice [5]; prepulse 85 dB, 15 min, 0.1 mg/kg i.p.): ~ 19%
- decrease of PPI (CD-1 male mice [5]; prepulse 85 dB, 15 min, 1 mg/kg i.p.): ~ 37%
- decrease of PPI (CD-1 male mice [5]; prepulse 85 dB, 120 min, 0.1 mg/kg i.p.): ~ 19%
- decrease of PPI (CD-1 male mice [5]; prepulse 85 dB, 120 min, 1 mg/kg i.p.): ~ 37%
- effect on immobility time (CD-1 male mice [6]; 1 and 6 mg/kg i.p., first hour): increased
- time during which motor capacity was affected (CD-1 male mice [6]; open field test): ≤ 60 min
